Measurements: patent US20260169012A1, “WHOLE BLOOD CONTROL SAMPLE SYSTEMS AND METHOD OF PREPARING AND USING THE SAME” (Perosphere Technologies Inc., priority 2020, published 2026)
Where two headings read alike, the source gives them in different places.

How the values were obtained:
[1] = test system: surrogate whole blood control; assay: Clotting time of surrogate whole blood control on PoC Coagulometer, benzamidine in lyophilizate (Example 2); design: species or system horse, sheep; details: for Clotting time: activated with 22 mM calcium chloride
Procedure: Plasma was prepared by mixing sheep plasma and horse plasma at a mixing ratio of 1:9. Sheep fibrinogen solution (45.72 mg/mL in 20 mM sodium citrate-HCl, pH 7.4) was diluted to 40 mg/mL with saline. Plasma base was further prepared by mixing 77% (w/v) plasma and 23% (w/v) sheep fibrinogen solution (40 mg/mL). Whole blood control was prepared by resuspending 35% (w/v) 2% glutaraldehyde-fixed horse red blood cells in 65% (w/v) plasma base, with addition of rabbit brain cephalin to a final concentration of 0.144 mg/mL. Benzamidine of varying concentrations were added to the preparation. The whole blood control was then freeze-dried in glass vials. To test the effect of benzamidine in lyophilizate on clotting time, the freeze-dried surrogate whole blood control was reconstituted in a diluent solution to half of its original volume, incubated at room temperature for 6 minutes, and mixed by swirling the glass vial gently for an additional 1 minute. The control was then activated by addition of 22 mM calcium chloride at the volume ratio of 1:1, followed by six times of rapid inversion. The samples were tested on Perosphere Technologies' PoC Coagulometers immediately after activation.

[2] = test system: surrogate whole blood control; assay: Clotting time of surrogate whole blood control on PoC Coagulometer, benzamidine in activation solution (Example 4); design: species or system horse, sheep; details: for Clotting time: 22 mM CaCl2
Procedure: (§1) Plasma was prepared by mixing sheep plasma and horse plasma at a mixing ratio of 1:9. Sheep fibrinogen solution (45.72 mg/mL in 20 mM sodium citrate-HCl, pH 7.4) was diluted to 40 mg/mL with saline. Plasma base was further prepared by mixing 77% (w/v) plasma and 23% (w/v) sheep fibrinogen solution (40 mg/mL). Whole blood control was prepared by resuspending 35% (w/v) 3% glutaraldehyde-fixed horse red blood cells in 65% (w/v) plasma base, with addition of rabbit brain cephalin to a final concentration of 0.144 mg/mL. The whole blood control was then freeze-thawed once and freeze-dried in glass vials. To test the effect of benzamidine concentration in activation solution on clotting time, the freeze-dried surrogate whole blood control was reconstituted in a diluent solution to half of its original volume, incubated at room temperature for 6 minutes, and mixed by swirling the glass vial gently for an additional 1 minute. The control was then activated by addition of an activation solution containing 22 mM CaCl2) and varying concentrations of benzamidine at the volume ratio of 1:1, followed by six times of rapid inversion. The samples were tested on Perosphere Technologies' PoC Coagulometers immediately after activation.

[3] = test system: surrogate whole blood control
Procedure: as §1, with “mg/mL by” for “mg/mL with”, “(w/v) 2%” for “(w/v) 3%”, “of calcium chloride” for “of benzamidine”, “of calcium chloride” for “of an activation”, “solution of” for “solution containing 22 mM CaCl2) and”, “concentrations” for “concentrations of benzamidine”

| SMILES | Response of clotting time to benzamidine concentration in lyophilizate (dose-response curve) ([1]; 0-2.2 mM in lyophilizate, FIG. 1) | Clotting time ([1]; benzamidine concentration in lyophilizate 1.1 mM) | Clotting time ([1]; benzamidine concentration in lyophilizate 2.2 mM) | Response of clotting time to benzamidine concentration in activation solution ([2]; 0-6.6 mM in activation solution, FIG. 2) | Clotting time ([2]; benzamidine concentration in activation solution 1.1 mM) | Clotting time ([2]; benzamidine concentration in activation solution 2.2 mM) | Clotting time ([2]; benzamidine concentration in activation solution 4.4 mM) | Clotting time ([2]; benzamidine concentration in activation solution 6.6 mM) | Clotting time ([3]; CaCl2 concentration in activation solution 14 mM) | Clotting time ([3]; CaCl2 concentration in activation solution 22 mM) | Clotting time ([3]; CaCl2 concentration in activation solution 30 mM) | Clotting time ([3]; CaCl2 concentration in activation solution 40 mM) |
| --- | --- | --- | --- | --- | --- | --- | --- | --- | --- | --- | --- | --- |
| N=C(N)c1ccccc1 [Benzamidine, benzamidine] | linear | 339.33 s | 495.00 s | linear response | 206.00 s | 249.00 s | 357.67 s | 422.50 s | – | – | – | – |
| [Ca+2].[Cl-].[Cl-] [CaCl2, calcium chloride] | – | – | – | – | – | – | – | – | 199.00 s | 154.00 s | 166.00 s | 203.33 s |
